For this test, the system named is human prostatic adenocarcinoma cell line PC3. Briefly: Cell viability studies, PC3. Type of test: cell-based. To be noted: PC-3, PC3 cells. The text has this:
Subsequently, the dextran nanophores therapeutic potential in vitro and in vivo was investigated. […] This drug combination was selected, because it was previously reported that inhibition of the androgen receptor pathway leads to overactivation of the PI3K cascade, while suppression of PI3K upregulates androgen-receptor-mediated signaling. […] Doxorubicin and the MEK inhibitor AZD6244 (Selumetinib®) was co-loaded into dextran nanophores, since MEK is a downstream target of EGFR.

The values that follow come from patent US20200315981A1, “COMPOSITIONS AND METHODS FOR NANOPARTICLE-BASED DRUG DELIVERY AND IMAGING” (Memorial Sloan Kettering Cancer Center, priority 2015, published 2020).

Structures are written as SMILES. Read-outs that look alike come from different tables or passages of the source.

As to `COc1cccc2c1C(=O)c1c(O)c3c(c(O)c1C2=O)C[C@@](O)(C(=O)CO)C[C@@H]3O[C@H]1C[C@H](N)[C@H](O)[C@H](C)O1` [doxorubicin], the IC50 reads like this: (FIG. 6, read-out: IC50) 6.5 µM; (FIG. 9D, read-out: doxorubicin concentration causing 50% reduction in the viability of PC3 cells) 8 µM.
